According to patent publication US20210121426A1, “BLOOD PURIFICATION BY ALKALINIZING AGENT” (TOHOKU UNIVERSITY, priority 2017, published 2021):
Marks after values point to notes of the source that are not given here.

What was measured:
Assay type in all cases: in vivo
p-cresyl sulfate = assay: Human clinical trial in CKD patients: p-cresyl sulfate in plasma and early morning urine (LC-MS/MS); design: key to Influence on concentration of PCS / Influence on PCS U/P ratio: Excellent effects: ◯; Poor effects: X; No significant difference: —; (◯): whether or not there is an effect of promoting excretion of indoxyl sulfate into the urine cannot be determined
Experimental: (§1) 1. […] Patients were assigned to each group so that age, sex, presence of diabetes, and eGFR were not biased. Each group was treated according to the “CKD medical care guide-summary of treatment” (hereinafter referred to as standard treatment).
(§2) An alkalinizing agent was not administered to the control group. […] A pH of early morning urine was controlled over time so that the dosage could be increased up to 6 tablets, 3 times a day (morning, noon, evening) as needed according to the discretion of the physician in cases where a pH of early morning urine was less than pH 6.5. To the group B, 3 tablets a day in which each tablet contained 500 mg of sodium bicarbonate were orally administered 3 times a day (morning, noon, evening) for 24 weeks. A pH of early morning urine was controlled over time so that the dosage could be increased up to 6 tablets, 3 times a day (morning, noon, evening) as needed according to the discretion of the physician in cases where a pH of early morning urine was less than pH 6.5.
(§3) Early morning urine and blood were collected before the start of administration, and 6 weeks, 12 weeks, and 24 weeks after the start of administration, and each specimen was stored at −80° C. Methods used in the present field for indoxyl sulfate, p-cresyl sulfate, phenylacetyl-L-glutamine, hippuric acid, and argininosuccinic acid in urine and blood (Sato, E., et. al., Metabolic alteration by indoxyl sulfate in skeletal muscle induce uremic sarcopenia in chronic kidney disease., Sci Rep. 2016 Nov. 10; 6:36618. doi: 10.1038/srep36618, and the like) were referred to, and quantitative analysis was performed using the following liquid chromatography triple quadrupole mass spectrometer (LC-MS/MS).
(§4) For LC, NANOSPACE SI-2 (manufactured by Shiseido) was used, and […] MGM was selected as the analytical column.
(§5) For MS, TSQ Quantiva (manufactured by Thermo Fisher Scientific Co., Ltd.) was used, and five compounds were ionized in the negative mode and detected using the Selected Reaction Monitoring method. The quantitative value was calculated using a calibration curve prepared with a standard solution of each compound.
(§6) For statistical analysis, the Mann-Whitney test was used for comparison between groups, and the Wilcoxon test was used for comparison of changes over time. The Pearson test was used for correlation.
(§7) Then, the average value and SD of each group were calculated for (i) to (ix) above. For each of (iv) to (ix) above, the average value and SD of each group were calculated for all data of 6 weeks, 12 weeks, and 24 weeks after the start of administration in each group.

argininosuccinic acid = assay: Human clinical trial in CKD patients: argininosuccinic acid in plasma and early morning urine (LC-MS/MS); design: key to Influence on concentration of ASA / Influence on ASA U/P ratio: Excellent effects: ◯; Poor effects: X; No significant difference: —; (◯): whether or not there is an effect of promoting excretion of indoxyl sulfate into the urine cannot be determined
Experimental: as §1, §2, §3, §4, §5, §6, §7

[1] = Human clinical trial: osmotic pressure of early morning urine (freezing point depression method)
Experimental: as §1, §2
The osmotic pressure was measured using the freezing point depression method.

[2] = 0 W, before the start of administration
[3] = 6-24 W, all data of 6, 12 and 24 weeks
[4] = Plasma, comparison with reference drug
[5] = Urine, comparison with reference drug
[6] = compared to before administration

SMILES: O=C([O-])O.[Na+] [Bicarbonate, sodium bicarbonate]
- Plasma p-Cresyl Sulfate (p-cresyl sulfate; [2]): 5402 ± 5209 ng/mL
- Urine p-Cresyl Sulfate (early morning urine) (p-cresyl sulfate; [2]): 66164 ± 97704 ng/mL
- p-Cresyl Sulfate-Urine/Plasma ratio (p-cresyl sulfate; [2]): 15.6 ± 11.1
- Plasma p-Cresyl Sulfate (p-cresyl sulfate; [3]): 4187 ± 4354 ng/mL
- Plasma p-Cresyl Sulfate, change from week 0 (p-cresyl sulfate; [3]): -1038 ± 2773 ng/mL
- Urine p-Cresyl Sulfate (early morning urine) (p-cresyl sulfate; [3]): 52501 ± 73583 ng/mL
- Urine p-Cresyl Sulfate, change from week 0 (p-cresyl sulfate; [3]): -13663 ± 74566 ng/mL
- p-Cresyl Sulfate-Urine/Plasma ratio (p-cresyl sulfate; [3]): 16.8 ± 13.9 ^d
- p-Cresyl Sulfate-Urine/Plasma ratio, change from week 0 (p-cresyl sulfate; [3]): 1.20 ± 11.45
- Plasma p-Cresyl Sulfate (p-cresyl sulfate; 6 W): 4506 ± 5300 ng/mL
- Plasma p-Cresyl Sulfate, change from week 0 (p-cresyl sulfate; 6 W): -895.9 ± 2153 ng/mL
- Urine p-Cresyl Sulfate (early morning urine) (p-cresyl sulfate; 6 W): 67744 ± 105548 ng/mL
- Urine p-Cresyl Sulfate, change from week 0 (p-cresyl sulfate; 6 W): 1580 ± 51468 ng/mL
- p-Cresyl Sulfate-Urine/Plasma ratio (p-cresyl sulfate; 6 W): 17.0 ± 12.0
- p-Cresyl Sulfate-Urine/Plasma ratio, change from week 0 (p-cresyl sulfate; 6 W): 1.39 ± 8.25
- Plasma p-Cresyl Sulfate (p-cresyl sulfate; 12 W): 3771 ± 4139 ng/mL
- Plasma p-Cresyl Sulfate, change from week 0 (p-cresyl sulfate; 12 W): -1103 ± 2478 ng/mL
- Urine p-Cresyl Sulfate (early morning urine) (p-cresyl sulfate; 12 W): 37730 ± 48411 ng/mL
- Urine p-Cresyl Sulfate, change from week 0 (p-cresyl sulfate; 12 W): -28434 ± 72253 ng/mL
- p-Cresyl Sulfate-Urine/Plasma ratio (p-cresyl sulfate; 12 W): 16.5 ± 17.9
- p-Cresyl Sulfate-Urine/Plasma ratio, change from week 0 (p-cresyl sulfate; 12 W): 0.91 ± 15.68
- Plasma p-Cresyl Sulfate (p-cresyl sulfate; 24 W): 4284 ± 3682 ng/mL
- Plasma p-Cresyl Sulfate, change from week 0 (p-cresyl sulfate; 24 W): -1119 ± 3631 ng/mL
- Urine p-Cresyl Sulfate (early morning urine) (p-cresyl sulfate; 24 W): 52029 ± 57779 ng/mL
- Urine p-Cresyl Sulfate, change from week 0 (p-cresyl sulfate; 24 W): -14163 ± 95244 ng/mL
- p-Cresyl Sulfate-Urine/Plasma ratio (p-cresyl sulfate; 24 W): 17.0 ± 11.8 ^c
- p-Cresyl Sulfate-Urine/Plasma ratio, change from week 0 (p-cresyl sulfate; 24 W): 1.31 ± 9.81
- Influence on concentration of PCS (p-cresyl sulfate; Plasma, comparison with Cont): —
- Influence on concentration of PCS (p-cresyl sulfate; [4]): ◯
- Influence on PCS U/P ratio (p-cresyl sulfate; comparison with Cont): ◯
- Influence on PCS U/P ratio (p-cresyl sulfate; comparison with reference drug): —
- Influence on concentration of PCS (p-cresyl sulfate; Urine, comparison with Cont): —
- Influence on concentration of PCS (p-cresyl sulfate; [5]): X
- concentration of p-cresyl sulfate in plasma (p-cresyl sulfate; [6]): decreased
- concentration of p-cresyl sulfate in urine (p-cresyl sulfate; [6]): such an effect was not recognized
- Arginino Succinic Acid-Urine/Plasma ratio (argininosuccinic acid; [2]): 3.82 ± 4.93
- Plasma Arginino Succinic Acid (argininosuccinic acid; [2]): 1178 ± 655 ng/mL
- Urine Arginino Succinic Acid (early morning urine) (argininosuccinic acid; [2]): 2911 ± 1691 ng/mL
- ASA - Urine/Plasma ratio, change from week 0 (argininosuccinic acid; [3]): 1.15 ± 7.87
- Arginino Succinic Acid-Urine/Plasma ratio (argininosuccinic acid; [3]): 4.97 ± 7.98
- Plasma Arginino Succinic Acid (argininosuccinic acid; [3]): 1327 ± 1416 ng/mL
- Plasma Arginino Succinic Acid, change from week 0 (argininosuccinic acid; [3]): 148.9 ± 1134 ng/mL
- Urine Arginino Succinic Acid (early morning urine) (argininosuccinic acid; [3]): 3071 ± 2386 ng/mL
- Urine Arginino Succinic Acid, change from week 0 (argininosuccinic acid; [3]): 160.2 ± 1756 ng/mL
- ASA - Urine/Plasma ratio, change from week 0 (argininosuccinic acid; 6 W): 1.93 ± 7.90
- Arginino Succinic Acid-Urine/Plasma ratio (argininosuccinic acid; 6 W): 5.75 ± 9.80
- Plasma Arginino Succinic Acid (argininosuccinic acid; 6 W): 1245 ± 748 ng/mL
- Plasma Arginino Succinic Acid, change from week 0 (argininosuccinic acid; 6 W): 66.5 ± 565.5 ng/mL
- Urine Arginino Succinic Acid (early morning urine) (argininosuccinic acid; 6 W): 3346 ± 2636 ng/mL
- Urine Arginino Succinic Acid, change from week 0 (argininosuccinic acid; 6 W): 434.7 ± 1299 ng/mL
- effect of excretion of argininosuccinic acid from blood into urine (argininosuccinic acid; 6 to 24 weeks, urine/plasma ratio): more strongly recognized
- ASA - Urine/Plasma ratio, change from week 0 (argininosuccinic acid; 12 W): −1.01 ± 4.47
- Arginino Succinic Acid-Urine/Plasma ratio (argininosuccinic acid; 12 W): 2.81 ± 1.86
- Plasma Arginino Succinic Acid (argininosuccinic acid; 12 W): 1576 ± 2160 ng/mL
- Plasma Arginino Succinic Acid, change from week 0 (argininosuccinic acid; 12 W): 397.7 ± 1733 ng/mL
- Urine Arginino Succinic Acid (early morning urine) (argininosuccinic acid; 12 W): 2647 ± 2123 ng/mL
- Urine Arginino Succinic Acid, change from week 0 (argininosuccinic acid; 12 W): -264.1 ± 1491 ng/mL
- ASA - Urine/Plasma ratio, change from week 0 (argininosuccinic acid; 24 W): 2.54 ± 10.20^a
- Arginino Succinic Acid-Urine/Plasma ratio (argininosuccinic acid; 24 W): 6.36 ± 9.60
- Plasma Arginino Succinic Acid (argininosuccinic acid; 24 W): 1160 ± 977 ng/mL
- Plasma Arginino Succinic Acid, change from week 0 (argininosuccinic acid; 24 W): -17.6 ± 776.9 ng/mL
- Urine Arginino Succinic Acid (early morning urine) (argininosuccinic acid; 24 W): 3221 ± 2466 ng/mL
- Urine Arginino Succinic Acid, change from week 0 (argininosuccinic acid; 24 W): 309.9 ± 2335 ng/mL
- Influence on concentration of ASA (argininosuccinic acid; Plasma, comparison with Cont): —
- Influence on concentration of ASA (argininosuccinic acid; [4]): —
- Influence on ASA U/P ratio (argininosuccinic acid; comparison with Cont): —
- Influence on ASA U/P ratio (argininosuccinic acid; comparison with reference drug): —
- Influence on concentration of ASA (argininosuccinic acid; Urine, comparison with Cont): —
- Influence on concentration of ASA (argininosuccinic acid; [5]): —
- Urine Osmotic Pressure ([1]; 0 W, before the start of the test): 492 ± 206 mOsm/kg
- Urine Osmotic Pressure ([1]; 6-24 W, all data): 486 ± 164 mOsm/kg
- Urine Osmotic Pressure (% Relative value vs week 0) ([1]; 6-24 W, all data): 109 ± 45^b %
- Urine Osmotic Pressure, difference vs week 0 ([1]; 6-24 W, all data): −6 ± 168 mOsm/kg
- Urine Osmotic Pressure ([1]; 6 W): 488 ± 154 mOsm/kg
- Urine Osmotic Pressure (% Relative value vs week 0) ([1]; 6 W): 108 ± 34%
- Urine Osmotic Pressure, difference vs week 0 ([1]; 6 W): −4 ± 165 mOsm/kg
- Urine Osmotic Pressure ([1]; 12 W): 456 ± 143 mOsm/kg
- Urine Osmotic Pressure (% Relative value vs week 0) ([1]; 12 W): 105 ± 57%
- Urine Osmotic Pressure, difference vs week 0 ([1]; 12 W): −36 ± 176^ mOsm/kg
- Urine Osmotic Pressure ([1]; 24 W): 515 ± 195 mOsm/kg
- Urine Osmotic Pressure (% Relative value vs week 0) ([1]; 24 W): 114 ± 45%
- Urine Osmotic Pressure, difference vs week 0 ([1]; 24 W): 23 ± 169 mOsm/kg
- osmotic pressure value of early morning urine ([1]; over 6, 12 and 24 weeks, compared with the control group): maintained or increased
